The text below walks through data of a melting point compilation (Tetko et al.; mined from patent text by program, amines drawn as free bases though some values may be those of a salt).

SMILES strings stand for the structures.

In the case of `N#Cc1ccc(-c2cc(C#N)cc(Cn3cncn3)c2)cc1`, the melting point lay within 154 to 155 °C.

As for `C=CC(=O)NC(C)(C)COc1ccc(Cl)cc1`, the melting point was 95 to 96 °C.

In turn, `Cn1nnnc1SCCCCSc1ccccn1` returned a melting point of 49 to 51.5 °C.

`COc1cccc(Nc2cnc3c(NCc4ccccc4)nc(NCCO)nc3c2)c1` gave a melting point of 110 to 111 °C.

Molecule `CCCN1c2ccccc2C(=O)N(CC(=O)O)c2cc(Cc3c[nH]c4ccccc34)ccc21` displayed a melting point of 160 to 170 °C.

Consider `CCCCCCCCCCCCCCCCSC(=O)Nc1ccc(NC(=O)NS(=O)(=O)c2ccc(OC)cc2)cc1`, for which the melting point turned out to be 197 °C.

Take `COc1ccc(O)c(CNc2ccccc2)c1`: the melting point was 82 to 84 °C.

As to `CCCN1NC(c2ccc(C)cc2)C2=C1C(=Cc1ccc(C)cc1)CSC2` (configuration not stated), the melting point lay in the range of 140 to 143 °C.

Molecule `CCNC(=NS(=O)(=O)c1cccc(C#N)c1)N1CC(CC)C=N1` (configuration not stated) showed a melting point of 164 to 168 °C.

With `CC(c1cccc(C(=O)c2ccccc2)c1)C(O)CC#N` (configuration not stated), the melting point is 130 °C.

`COC(=O)c1ccccc1C(=O)Nc1cc(C(F)(F)C(F)(F)F)on1`: the melting point was in the range of 97 to 100 °C.

Molecule `OCCNc1ccnc2cc(C(F)(F)F)ccc12` displayed a melting point of 181 to 182 °C.

The molecule `O=C1Oc2ccccc2CN1C1CCN(Cc2ccccc2)CC1` yielded a melting point of 106 to 107 °C.

As for `CSC(NCCNC(=O)OC(C)(C)C)=C(C#N)C#N`, the melting point fell in the range of 123 to 125 °C.

Molecule `COC(=O)c1ccc(OCc2ccccc2)c(C(C)=O)c1` displayed a melting point of 68 to 72 °C.

Take `Cc1cc(C)nc(COCP(=O)(O)O)c1`: the melting point fell in the range of 153 to 156 °C.

Consider `O=C(O)CCC1COc2ccccc2O1` (configuration not stated), for which the melting point came to 102 °C.

With `COc1cccc(OC)c1-c1ccc(C[C@H](NC(=O)c2c(Cl)cc(F)cc2Cl)C(=O)O)cc1`, the melting point lay within 206 to 207 °C.

`Cc1oc(-c2ccccc2)nc1COc1ccc2c(-c3ccccc3)c(CCl)oc2c1` came in with a melting point of 129 to 130 °C.

`CC1(C#N)C(=O)C2=C(c3ccccc3)NC(=O)C2=C1c1ccccc1` (configuration not stated): the melting point lay within 299 to 301 °C.

Molecule `O=S1(=O)CCCN1Cc1ccncc1` displayed a melting point of 82 °C.

Molecule `CS(=O)(=O)Nc1ccc(C(=O)NC(=O)N2CCC(Oc3ccc(Cl)cc3)CC2)cc1` gave a melting point of 79 °C.

Molecule `CN1CCC(c2cc3ccccc3c(=O)[nH]2)CC1` registered a melting point of 255 to 257 °C.

As for `CNC(=O)c1cc(-c2ccc(OC)cc2)nn(Cc2ccc(Cl)cc2Cl)c1=O`, the melting point was in the range of 154 to 156 °C.

For `O=C(O)c1ccccc1NCCCn1c2ccc(O)cc2c2c3c(c(-c4ccccc4Cl)cc21)C(=O)NC3=O`, the melting point was in the range of 261 to 263 °C.

Take `COc1ccc(C=CCC#N)cc1`: the melting point is 75 to 76 °C.

`COc1cc(S(C)=O)c(C)cc1OCC(C)=O` (configuration not stated) came in with a melting point of 104 to 106 °C.

`O=C1CC(c2cccc(-n3ccnn3)c2)=Nc2ccc(-c3cccc(F)c3F)cc2N1` showed a melting point of 230 °C.

`CCOC(=O)c1sc(-n2ccc(OCc3ccc(F)cc3)cc2=O)nc1C` yielded a melting point of 214 to 217 °C.

`CN1Cc2c(C(=O)OC(C)(C)C)ncn2-c2ccc(F)cc2C1=O` showed a melting point of 228 to 229 °C.

Molecule `Cc1c(-c2ccnc3cc(Cl)ccc23)c2cc(NS(C)(=O)=O)ccc2n1CC(=O)O` registered a melting point of 195 to 198 °C.

On to `CC(C)n1c2ccccc2c2sccc(=O)c21`, for which the melting point fell in the range of 154 to 156 °C.

Regarding `N#Cc1ccccc1N=Nc1ccc(O)cc1`, the melting point is 201 to 203 °C.

Consider `CC(C)C(=O)Oc1n[nH]c(=O)c2nc3cc(Cl)ccc3c(O)c12`, for which the melting point was 328 to 335 °C.

In turn, `CN(C)c1nccc(-c2ccc(-c3ccc(N(c4ccccc4)c4ccccc4)cc3)cc2)n1` registered a melting point of 140 to 141 °C.

As for `COCC1C(=O)C(C)(C)C(=O)N1c1ccc(C#N)c(Cl)c1` (configuration not stated), the melting point is 98 to 99 °C.

Molecule `O=C(O)CCNC(=O)CCNC(=O)N1CCC2(CCNCC2)CC1` gave a melting point of 105 to 110 °C.

On to `O=c1nc(C2CCCCC2)c2cc(Cl)ccc2[nH]1`, for which the melting point is 270 °C.

Regarding `CN(c1ccc(N)cc1)c1nc(=O)c2cccnc2s1`, the melting point was found to be 250 °C.

On to `CC(O)(C(N)=O)c1ccc(OS(=O)(=O)C(F)(F)F)cc1` (configuration not stated), for which the melting point was in the range of 105 to 107 °C.

The molecule `O=[N+]([O-])c1cccc(OCc2csc(-c3ccccc3)n2)c1` gave a melting point of 112 to 114 °C.

`Cc1ccc(N)cc1NC(=O)c1ccc(O)cc1` returned a melting point of 277 to 278 °C.

Take `ClCCOc1ccc([C@H]2c3ccc(OCc4ccccc4)cc3OC[C@H]2c2ccccc2)cc1` (racemic): the melting point was 66 to 70.6 °C.

Regarding `Fc1cccc(CC[C@H]2CN(Cc3ccccc3)CCN2Cc2ccccc2)c1`, the melting point is 69 to 71 °C.

Consider `CC(C)c1nn2ccccc2c1C(O)C(C)C` (configuration not stated), for which the melting point is 69 °C.

As for `CC(C)(C)OC(=O)C1C(C#CC(=O)O)C1(C)C` (configuration not stated), the melting point turned out to be 144 °C.

`CCCCOc1c(N(C)C(=O)OC(C)(C)C)n(CC(C)(C)C)c(=O)c2ccc(CC(N)=O)cc12` returned a melting point of 114 to 115 °C.

`CC(=O)NC[C@H]1CN(c2cc(F)c(N3CCC(n4nnnc4-c4ccncc4)CC3)c(F)c2)C(=O)O1` yielded a melting point of 202 to 204 °C.

As to `O=C(O)C(F)(F)c1cccc(OCc2ccccc2Cl)c1OCc1ccccc1Cl`, the melting point fell in the range of 55 to 57 °C.

Consider `COc1ccccc1NC(=O)Nc1nc(Nc2ccccc2-c2ccccc2)nc(N(CC(=O)O)Cc2ccc(F)cc2)n1`, for which the melting point fell in the range of 120 to 125 °C.

In the case of `CC(=O)N1CCC(N(C)S(C)(=O)=O)CC1`, the melting point was determined as 132 °C.

As for `CC(O)C1CCC(CNC(=O)OC(C)(C)C)CC1` (configuration not stated), the melting point was in the range of 75 to 76 °C.

Molecule `Cc1nnc2nc(-c3cccc(C(F)(F)F)c3)ccn12` came in with a melting point of 232 to 234 °C.

Regarding `Cc1occc(=O)c1OC(=O)c1ccccc1`, the melting point was 106 to 110 °C.

Take `c1ccc(-c2cc3ccc4ccccc4n3n2)cc1`: the melting point was in the range of 85 to 86 °C.

`CC(C)(C#N)CCCCOc1cc(-c2ccccc2)cc(-c2ccccc2)n1` registered a melting point of 71 °C.

Molecule `c1cncc(N=C2SCC3Cc4ccccc4N23)c1` (racemic) yielded a melting point of 131 °C.

On to `O=C(CBr)C1=Cc2ccccc2OC1`, for which the melting point is 87 °C.

`CCCCCN(CCC12CC3CC(CC(C3)C1)C2)C(=O)NC/C=C/c1ccncc1` had a melting point of 90 to 118 °C.

With `C[C@@H](C(N)=O)c1ccc(NS(C)(=O)=O)c(F)c1`, the melting point was 40 to 42 °C.

As to `CCOC(=O)C1Oc2cc(C=O)c(Cl)c(Cl)c2O1` (configuration not stated), the melting point fell in the range of 81 to 83 °C.

Consider `Cc1oc(C(C)(C)C)nc1CCl`, for which the melting point fell in the range of 41 to 44 °C.

Molecule `NS(=O)(=O)c1cccc(-c2cn(-c3nc(-c4ccc(C(F)(F)F)nc4)cc(C(F)F)n3)cn2)c1` yielded a melting point of 220 °C.

Molecule `O=C(Nc1n[nH]c(=S)s1)NC(Cc1ccccc1)C(=O)NCCCc1ccccc1` (configuration not stated) yielded a melting point of 190 to 191 °C.

In turn, `CS(=O)(=O)N(Cc1cccnc1)c1ccccc1F` registered a melting point of 120 °C.

For the molecule `COc1cc([N+](=O)[O-])c([N+](=O)[O-])cc1O`, the melting point worked out at 172 °C.

Consider `CCCC1=C(C(=O)OCC)C(c2ccccc2Cl)c2cn(C(=O)OC)nc2N1` (configuration not stated), for which the melting point was 141 to 143 °C.

Regarding `CCOP(=O)(/C=C/c1ccc2cc(NC(=O)c3cccnc3)cc(-c3cccc4ccccc34)c2n1)OCC`, the melting point lay in the range of 216 to 217 °C.

With `O=[N+]([O-])c1ccc(-c2nn(-c3ccccc3)cc2CO)o1`, the melting point fell in the range of 148 to 149 °C.

The molecule `COC(=O)C1CCC2C3CCC4CC(O)C(O)CC4(C)C3C(NCCC(C)C)CC12C` (configuration not stated) displayed a melting point of 159 to 161 °C.

For the molecule `CCOC(=O)c1cc(CC)sc1Nc1ccc(Cl)cc1[N+](=O)[O-]`, the melting point was 75 to 76.5 °C.

`CC(C)C(=O)NCc1cccc(-c2nc(=O)c3ccccc3s2)n1` returned a melting point of 189 °C.

`FC(F)(F)COc1ccccc1Sc1nc[nH]n1` displayed a melting point of 100 to 101 °C.

For the molecule `Cc1ccc(-c2cc(N)nn2C(=O)OC(C)(C)C)cc1`, the melting point came to 147 °C.

Take `Cc1cc(CCC(=O)O)nc(-c2nc(=O)c3ccc(Cl)cc3s2)c1`: the melting point fell in the range of 232 to 233 °C.

For `CCOC(=O)Nc1cc2c(cc1F)nc(C(F)(F)F)n2Cc1cccc(Cl)c1`, the melting point lay in the range of 144 to 146 °C.

For `CCOC(=O)C1(NC(=O)c2ccc3c(Cl)cnc(Cl)c3c2)CCCC1`, the melting point was in the range of 178 to 180 °C.

`C#CCOc1cc(C=O)cc(Cl)c1OCC#C` registered a melting point of 64 to 65 °C.

Regarding `O=[N+]([O-])c1cccc(/C=C/c2nc(C3CCCC3)cs2)c1`, the melting point fell in the range of 65 to 70 °C.

`CN1c2ccccc2-c2nc3ccc(/C=C/C#N)cc3c3cccc1c23` had a melting point of 262 to 264 °C.

For the molecule `Cc1nc2c(O)cccc2c(=O)n1C1CCC(=O)NC1=O` (configuration not stated), the melting point was in the range of 266 to 268 °C.

Turning to `CCOc1nc(O)nn1CC`, the melting point is 64 to 67 °C.

`CCc1cc2c(-c3ccccc3Cl)c(C(=O)O)c(=O)n(C)c2s1` showed a melting point of 155 to 156 °C.

In turn, `O=C(c1cccc(C(F)(F)F)c1)c1ncccc1C(O)=NNc1c(Cl)cc(C(F)(F)F)cc1Cl` returned a melting point of 92 to 96 °C.

On to `Nc1nc2ccc3ccc(CNc4ccc(F)cc4)cc3c2c(=O)[nH]1`, for which the melting point is more than 230 °C.

In turn, `O=C(O)c1cc2c(s1)C1CCC2C1` (configuration not stated) gave a melting point of 183 to 184 °C.

Take `Oc1ccccc1-c1ccccc1-c1cccc2[pH]c3ccccc3c12` (configuration not stated): the melting point lay in the range of 152 to 155 °C.

The molecule `CCCCCCCc1cnc(-c2ccc(CCC(=O)OCC(F)(F)C(F)F)cc2)nc1` showed a melting point of 42 °C.

`COCCOc1ccc(/C=C/C(=O)NS(=O)(=O)c2cccc(C#N)c2)c(Oc2ncc(C(F)(F)F)cc2Cl)c1`: the melting point was in the range of 195 to 197 °C.

`CN1CCCC(c2cccc3c2CC(=O)N3)C1` (configuration not stated) came in with a melting point of 160 °C.

In the case of `COC(=O)Nc1cccc2c1C(=O)c1ccccc1C2=O`, the melting point is 214 °C.

The molecule `O=S1(=O)NCCNc2ccc(Oc3cccc(CO)c3)cc21` returned a melting point of 146 °C.
